Measurements reported in US20050065176A1, “Combinations” (priority 2003, published 2005).
Counter-ions that a name gives are not always drawn.

Assay: not given

SMILES	melting point [°C]
CCC[C@@H](C)C[C@H](N)CC(=O)O.Cl	142.5 to 142.7
CCCC(C)(C)CC(CN)C(=O)O.Cl (stereo not drawn)	229.5 to 231
CCCC[C@@H](C)C[C@H](N)CC(=O)O (as salt: hydrochloride)	142.5 to 143.3
CCC[C@@H](C)C[C@H](CN)C(=O)O (as salt: hydrochloride)	226.3 to 228
CCCC(C)(C)C[C@H](N)CC(=O)O (as salt: hydrochloride) (hydrate or solvate)	194.2 to 195.2

Assay: Plasma concentration (Cmax) of gabapentin in the rat

SMILES	Cmax [ng/mL]
NCC1(CC(=O)O)CCCCC1 [gabapentin, 1-(aminomethyl)-cyclohexylacetic acid]	520 to 10500
